# Source: ChEMBL document CHEMBL5226330, “Synthesis of Oxazino[4,3-a]indoles and biological applications” (2021)
# Species on record: Mus musculus
# Assay: Antidepressant activity against […] Swiss albino mouse model assessed as […]
# Type: functional
row,Compound,ED50
1,CNCCC1(C)OCCn2c1c(C)c1ccccc12.Cl (stereo not drawn),0.5 mg/kg
2,Cc1c2n(c3ccccc13)CCOC2(C)CCN(C)C.Cl (stereo not drawn),2 mg/kg
3,Cc1c2n(c3ccccc13)CCOC2(C)CCCN(C)C.Cl (stereo not drawn),2.9 mg/kg
